Results taken from article PMC10870240 (Chembiochem : a European journal of chemical biology, 2023).

Molecular target: full-length CBP (Homo sapiens, UniProt Q92793)
Experiment: cellular thermal shift assay
Type: biochemical
Conditions: 25 μM garcinolic acid, MV4-11 nuclear extract

Sequence of full-length CBP (Q92793 2-2442): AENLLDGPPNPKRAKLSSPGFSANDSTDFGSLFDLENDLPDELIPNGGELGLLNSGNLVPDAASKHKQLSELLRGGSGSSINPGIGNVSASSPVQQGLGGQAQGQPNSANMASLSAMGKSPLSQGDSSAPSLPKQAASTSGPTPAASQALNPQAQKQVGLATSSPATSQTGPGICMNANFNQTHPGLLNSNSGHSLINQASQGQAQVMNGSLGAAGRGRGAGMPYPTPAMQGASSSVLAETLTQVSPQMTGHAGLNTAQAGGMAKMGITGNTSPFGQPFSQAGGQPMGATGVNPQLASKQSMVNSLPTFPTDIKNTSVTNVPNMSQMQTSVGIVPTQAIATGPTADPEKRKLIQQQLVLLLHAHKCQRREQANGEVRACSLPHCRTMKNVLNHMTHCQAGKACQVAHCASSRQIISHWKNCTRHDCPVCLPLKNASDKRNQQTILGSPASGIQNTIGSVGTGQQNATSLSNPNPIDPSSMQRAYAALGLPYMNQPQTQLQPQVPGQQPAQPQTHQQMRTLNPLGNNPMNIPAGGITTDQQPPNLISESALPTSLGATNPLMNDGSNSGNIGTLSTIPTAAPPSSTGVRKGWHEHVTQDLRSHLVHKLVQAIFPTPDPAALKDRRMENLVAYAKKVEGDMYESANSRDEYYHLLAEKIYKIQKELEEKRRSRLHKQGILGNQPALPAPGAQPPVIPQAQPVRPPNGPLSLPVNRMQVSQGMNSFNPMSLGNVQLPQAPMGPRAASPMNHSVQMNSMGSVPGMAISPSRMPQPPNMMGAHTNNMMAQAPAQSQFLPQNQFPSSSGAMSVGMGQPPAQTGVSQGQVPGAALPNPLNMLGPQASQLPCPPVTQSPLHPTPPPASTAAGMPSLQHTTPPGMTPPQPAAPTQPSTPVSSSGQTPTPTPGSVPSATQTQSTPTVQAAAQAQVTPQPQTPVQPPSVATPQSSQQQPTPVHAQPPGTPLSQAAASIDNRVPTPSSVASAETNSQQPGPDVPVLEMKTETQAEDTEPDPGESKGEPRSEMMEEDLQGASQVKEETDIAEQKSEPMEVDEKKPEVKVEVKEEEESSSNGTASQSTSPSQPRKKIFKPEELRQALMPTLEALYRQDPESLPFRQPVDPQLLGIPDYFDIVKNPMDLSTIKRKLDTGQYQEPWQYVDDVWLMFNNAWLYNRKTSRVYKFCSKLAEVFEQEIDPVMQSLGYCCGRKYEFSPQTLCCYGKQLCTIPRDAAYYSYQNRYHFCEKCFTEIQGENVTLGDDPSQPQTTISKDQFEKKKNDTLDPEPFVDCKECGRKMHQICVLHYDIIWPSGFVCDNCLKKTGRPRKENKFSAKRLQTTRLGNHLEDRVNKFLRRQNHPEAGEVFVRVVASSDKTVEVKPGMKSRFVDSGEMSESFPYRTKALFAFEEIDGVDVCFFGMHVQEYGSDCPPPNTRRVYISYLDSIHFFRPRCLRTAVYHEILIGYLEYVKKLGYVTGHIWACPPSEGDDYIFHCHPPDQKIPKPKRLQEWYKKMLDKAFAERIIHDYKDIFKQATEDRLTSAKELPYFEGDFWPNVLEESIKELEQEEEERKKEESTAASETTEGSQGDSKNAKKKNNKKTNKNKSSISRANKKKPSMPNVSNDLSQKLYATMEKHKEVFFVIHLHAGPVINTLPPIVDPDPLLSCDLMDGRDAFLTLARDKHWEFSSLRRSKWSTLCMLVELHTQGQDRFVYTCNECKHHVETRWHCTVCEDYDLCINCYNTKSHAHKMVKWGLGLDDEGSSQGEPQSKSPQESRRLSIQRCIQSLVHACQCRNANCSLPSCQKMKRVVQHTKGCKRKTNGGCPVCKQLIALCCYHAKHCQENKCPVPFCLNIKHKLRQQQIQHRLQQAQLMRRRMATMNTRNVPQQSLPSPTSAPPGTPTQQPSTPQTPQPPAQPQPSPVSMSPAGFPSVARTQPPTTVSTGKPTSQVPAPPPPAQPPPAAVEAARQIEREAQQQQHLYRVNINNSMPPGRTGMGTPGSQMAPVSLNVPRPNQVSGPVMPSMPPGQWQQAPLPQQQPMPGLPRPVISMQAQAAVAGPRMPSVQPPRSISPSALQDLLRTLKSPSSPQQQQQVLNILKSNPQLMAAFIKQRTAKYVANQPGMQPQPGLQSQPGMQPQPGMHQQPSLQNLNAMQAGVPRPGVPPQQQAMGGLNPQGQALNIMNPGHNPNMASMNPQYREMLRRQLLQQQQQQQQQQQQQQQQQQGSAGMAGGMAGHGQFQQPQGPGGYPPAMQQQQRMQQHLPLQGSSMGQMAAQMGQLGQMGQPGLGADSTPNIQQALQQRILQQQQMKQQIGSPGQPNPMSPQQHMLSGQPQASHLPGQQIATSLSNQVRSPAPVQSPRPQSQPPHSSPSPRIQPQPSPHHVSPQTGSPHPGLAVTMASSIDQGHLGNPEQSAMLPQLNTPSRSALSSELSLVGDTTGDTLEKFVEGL

## CC(C)=CCCC1(C)C=Cc2c(O)c3c(c(CC=C(C)C)c2O1)OC12C(=CCCC1C(C)(C)O[C@@]2(C/C=C(\C)C(=O)O)C(=O)O)C3=O (stereo partly shown) [garcinolic acid]
  cellular thermal shift assay (Western blot): intact CBP is still observed in the garcinolic acid treated samples
